Experimental data reported in ChEMBL document CHEMBL1133749, “Water-soluble, core-modified porphyrins as novel, longer-wavelength-absorbing sensitizers for photodynamic therapy” (J Med Chem, 2000).

What was measured:
[1] = test system: Murine T-cell line; experiment: Compound at >50 ug/mL was tested for photoactivity against murine T-cell line; No significant photoactivity; assay type: functional, cell-based; conditions: Mus musculus
[2] = test system: Colon 26; experiment: Photodynamic therapy against COLO-26 cells in culture; assay type: cell-based; conditions: Mus musculus, Colon 26, light or radiation study; read-out: LD50 (the source's name)
[3] = test system: Mus musculus; experiment: Tested in vivo for times to mm**3 tumor volume against BALB/c mice bearing COLO-26 tumors at a dose 3.25 mg/Kg; assay type: functional
[4] = test system: Mus musculus; experiment: Tested in vivo for times to mm**3 tumor volume against BALB/c mice bearing COLO-26 tumors at a dose 10 mg/Kg; assay type: functional
[5] = test system: Colon 26; experiment: Lethal dose required for photodynamic therapy against COLO-26 cells in culture; assay type: toxicity, cell-based

Structure (SMILES)	NS [1]	CC50 [2] [µg/mL]	Time [3] [h]	Time [4] [h]	CC50 ([5]; Mus musculus, Colon 26, light or radiation study, read-out: LD50 (the source's name)) [µg/mL]	LD90 ([5]; mouse) [µg/mL]
O=S(=O)([O-])c1ccc(-c2c3nc(c(-c4ccc(S(=O)(=O)[O-])cc4)c4ccc([nH]4)c(-c4ccc(S(=O)(=O)[O-])cc4)c4ccc([nH]4)c(-c4ccc(S(=O)(=O)[O-])cc4)c4nc2C=C4)C=C3)cc1.[Na+].[Na+].[Na+].[Na+]	No significant photoactivity	> 100				
O=S(=O)([O-])c1ccc(-c2c3nc(c(-c4ccc(S(=O)(=O)[O-])cc4)c4ccc(s4)c(-c4ccc(S(=O)(=O)[O-])cc4)c4nc(c(-c5ccc(S(=O)(=O)[O-])cc5)c5ccc2s5)C=C4)C=C3)cc1.[Na+].[Na+].[Na+].[Na+]	No significant photoactivity		198	276	< 25	> 50
